The values that follow come from US20240226098A1, “COMPOUNDS AND METHODS FOR MODULATING SPLICING” (REMIX THERAPEUTICS INC., priority 2020, published 2024).

Common to all, as to assay type: cell-based
Assay [1] concerns HTT mRNA, canonical junction (CJ). The assay can be described thus: Splicing assay (RT-qPCR): decrease in HTT canonical junction (CJ) mRNA. Conditions: A673 or K562 cell line, 24 hours treatment, top dose 10 uM; concentration having 50% response in CJ decrease. The procedure: (§1) Compounds described herein were used to modulate RNA transcript abundance in cells. The expression of a target mRNA was measured by detecting the formation of an exon-exon junction in the canonical transcript (CJ). A compound mediated exon-inclusion event was detected by observing an increase in formation of a new junction with an alternative exon (AJ). Real-time qPCR assays were used to detect these splicing switches and interrogate the potency of various compounds towards different target genes. A high-throughput real time quantitative PCR (RT-qPCR) assay was developed to measure these two isoforms of the mRNA (CJ and AJ) for an exemplary gene, HTT, together with a control housekeeping gene, GAPDH or GUSB or PPIA, used for normalization. Briefly, the A673 or K562 cell line was treated with various compounds described herein (e.g., compounds of Formula (I)). After treatment, the levels of the HTT mRNA targets were determined from each sample of cell lysate by cDNA synthesis followed by qPCR.
(§2) • Cells-to-CT 1-step kit: ThermoFisher A25602, Cells-to-CT lysis reagent: ThermoFisher 4391851C, TaqMan™ Fast Virus 1-Step Master Mix: ThermoFisher 4444436 • GAPDH: VIC-PL, ThermoFisher 4326317E (Assay: Hs99999905_ml)—used for K562/suspension cell lines • GUSB: VIC-PL, ThermoFisher 4326320E (Assay: Hs99999908_ml)—used for K562/suspension cell lines • PPIA: VIC-PL, ThermoFisher 4326316E (Assay: Hs99999904_ml)—used for A673/adherent cell lines
(§3) The A673 cell line was cultured in DMEM with 10% FBS. Cells were diluted with full growth media and plated in a 96-well plate (15,000 cells in 100 ul media per well). The plate was incubated at 37° C. with 5% CO2 for 24 hours to allow cells to adhere. An 11-point 3-fold serial dilution of the compounds was made in DMSO then diluted in media in an intermediate plate. Compounds were transferred from the intermediate plate to the cell plate with the top dose at a final concentration of 10 uM in the well. Final DMSO concentration was kept at or below 0.25%. The cell plate was returned to the incubator at 37° C. with 5% CO2 for an additional 24 hours.
(§4) The K562 cell line was cultured in IMDM with 10% FBS. For K562, cells were diluted with full growth media and plated in either a 96-well plate (50,000 cells in 50 uL media per well) or a 384-well plate (8,000-40,000 cells in 45 uL media per well). An 11-point 3-fold serial dilution of the compounds were made in DMSO then diluted in media in an intermediate plate. Compound was transferred from the intermediate plate to the cell plate with the top dose at a final concentration of 10 uM in the well. Final DMSO concentration was kept at or below 0.25%. Final volume was 100 uL for 96-well plate and 50 uL for 384-well plate. The cell plate was then placed in an incubator at 37° C. with 5% CO2 for 24 hours.
(§5) The cells were then gently washed with 50 uL-100 uL cold PBS before proceeding to addition of lysis buffer. 30 uL-50 uL of room temperature lysis buffer with DNAse I (and optionally RNAsin) was added to each well. Cells were shaken/mixed thoroughly at room temperature for 5-10 minutes for lysis to take place and then 3 uL-5 uL of room temperature stop solution was added and wells were shaken/mixed again. After 2-5 minutes, the cell lysate plate was transferred to ice for RT-qPCR reaction setup. The lysates could also be frozen at −80° C. for later use.
(§6) In some cases, a direct lysis buffer was used. An appropriate volume of 3× lysis buffer (10 mM Tris, 150 mM NaCl, 1.5%-2.5% Igepal and 0.1-1 U/uL RNAsin, pH 7.4) was directly added to either K562 or A673 cells in media and mixed by pipetting 3 times. The plates were then incubated at room temperature with shaking/rocking for 20-50 minutes to allow for lysis to take place. After this time, the cell lysate plate was transferred to ice to set up for the RT-qPCR reactions. The lysates could also be frozen at −80° C. for later use. […]

The test system of assay [2] is HTT mRNA, alternative junction (AJ). The assay can be described thus: Splicing assay (RT-qPCR): increase in HTT alternative junction (AJ) mRNA. Conditions: A673 or K562 cell line, 24 hours treatment, top dose 10 uM; concentration having 50% response in AJ increase. The protocol: as §1, §2, §3, §4, §5, §6
For orientation: Real-time PCR tracks product formation cycle by cycle.

Another assay deals with HTT CJ mRNA. As to the kind of experiment: Gene panel canonical junction qPCR assay: decrease in HTT CJ mRNA. As to conditions: protocol as for Table 2, read-out: HTT (IC50, decrease in CJ mRNA levels). The procedure:
as §1, §3, §4, §5
(§7) In some cases, a direct lysis buffer was used. An appropriate volume of 3× lysis buffer (10 mM Tris, 150 mM NaCl, 1.5%-2.5% Igepal and 0.1-1 U/uL RNAsin, pH 7.4) was directly added to either K562 or A673 cells in media and mixed by pipetting 3 times. The plates were then incubated at room temperature with shaking/rocking for 20-50 minutes to allow for lysis to take place. After this time, the cell lysate plate was transferred to ice to set up for the RT-qPCR reactions. The lysates could also be frozen at −80° C. for later use.
(§8) To set up 10 uL RT-qPCR reactions, cell lysates were transferred to 384-well qPCR plates containing the master mix according to the table below. The plates were sealed, gently vortexed, and spun down before the run. The volumes were adjusted accordingly in some instances where the reaction was carried in 20 uL. The table below summarizes the components of the RT-qPCR reactions:
(§9) The RT-qPCR reaction was performed using a QuantStudio (ThermoFisher) under the following fast cycling conditions. […]

Another assay deals with SMN2 CJ mRNA. As to the kind of experiment: Gene panel canonical junction qPCR assay: decrease in SMN2 CJ mRNA. As to conditions: protocol as for Table 2, read-out: SMN2 (IC50, decrease in CJ mRNA levels). The procedure:
as §1, §3, §4, §5, §7, §8, §9

In the next assay the test system is Target C CJ mRNA. The assay can be described thus: Gene panel canonical junction qPCR assay: decrease in Target C CJ mRNA. Conditions: protocol as for Table 2, read-out: Target C (IC50, decrease in CJ mRNA levels). The protocol:
as §1, §3, §4, §5, §7, §8, §9

Molecules are shown by their SMILES.

One may read the AC50 as the concentration giving half of the maximal activity seen. The low end stands for greater potency, the high end for weaker potency. As usually defined, the IC50 is the midpoint of a concentration-inhibition curve. Take `Cc1cn2nc(NC(=O)c3ccc(C4CCNCC4)c4ccnnc34)cc(C)c2n1` [Compound 113, N-[2,8-dimethylimidazo[1,2-b]pyridazin-6-yl]-5-(piperidin-4-yl) cinnoline-8-carboxamide]: the concentration at half-maximal activity (AC50) in assay [1] and in assay [2] was 1 to 10 µM in each case. Also, the IC50 in the assay with HTT CJ mRNA was 1 to 10 µM; in the assay with SMN2 CJ mRNA it was 0.1 to 1 µM; in the assay with Target C CJ mRNA, 1 to 10 µM.

`Cc1cn2cc(NC(=O)c3ccc(N4C[C@H]5C[C@@H]4C5N(C)C)c4ccnnc34)cc(F)c2n1` (stereo partly shown) [Compound 155]: the half-maximal activity concentration (AC50) in assay [1] and in assay [2] was > 10 µM throughout. The IC50 in the assay with HTT CJ mRNA was > 10 µM; in the assay with SMN2 CJ mRNA, 0.1 to 1 µM; with Target C CJ mRNA, > 10 µM.

As for `Cc1cn2cc(NC(=O)c3ccc(N4CCC(NC(C)(C)C)CC4)c4ccnnc34)cc(F)c2n1` [Compound 138, 5-[4-(tert-butylamino)piperidin-1-yl]-N-[8-fluoro-2-methylimidazo[1,2-a]pyridin-6-yl]cinnoline-8-carboxamide], the concentration at half-maximal activity (AC50) in assay [1] and in assay [2] was 1 to 10 µM in each case. Also, the IC50 in the assay on HTT CJ mRNA was 1 to 10 µM; in the assay on SMN2 CJ mRNA, < 0.1 µM; in the assay on Target C CJ mRNA, 1 to 10 µM.

Take `Cc1cn2cc(NC(=O)c3ccc(N4CCNC(C)C4)c4ccnnc34)cc(F)c2n1` (stereo in doubt) [Compound 147, N-[8-fluoro-2-methylimidazo[1,2-a]pyridin-6-yl]-5-[(3R)-3-methylpiperazin-1-yl]cinnoline-8-carboxamide]: the AC50 in assay [1] and in assay [2] was 1 to 10 µM each time. For the same molecule, the figures for the IC50 in the assay with HTT CJ mRNA, with SMN2 CJ mRNA and in the assay on Target C CJ mRNA were 1 to 10 µM, < 0.1 µM and 1 to 10 µM, respectively.

Take `Cc1cn2cc(NC(=O)c3ccc(N4C[C@H]5C[C@@H]4C5N(C)C)c4ccnnc34)cc(F)c2n1` (stereo partly drawn) [Compound 148, 5-[(1R,4R)-5-(dimethylamino)-2-azabicyclo [2.1.1]hexan-2-yl]-N-[8-fluoro-2-methylimidazo[1,2-a]pyridin-6-yl] cinnoline-8-carboxamide]: the AC50 in assay [1] and in assay [2] was 1 to 10 µM in each case. Also, the half-maximal inhibitory concentration (IC50) in the assay with HTT CJ mRNA, in the assay with SMN2 CJ mRNA and in the assay with Target C CJ mRNA was 1 to 10 µM each time.

As to `Cc1nc2c(F)cc(NC(=O)c3ccc(N4CCNCC4)c4ccnnc34)cc2o1` [Compound 117, N-(4-fluoro-2-methyl-1,3-benzoxazol-6-yl)-5-(piperazin-1-yl) cinnoline-8-carboxamide], the AC50 in assay [1] and in assay [2] was 1 to 10 µM each time. In addition, the values for the IC50 in the assay on HTT CJ mRNA, in the assay with SMN2 CJ mRNA and with Target C CJ mRNA were 1 to 10 µM, < 0.1 µM and 1 to 10 µM, respectively.

Take `Cc1cn2nc(NC(=O)c3ccc(N4CCNCC4)c4ccnnc34)nc2c(C)n1` [Compound 122]: the AC50 in assay [1] and in assay [2] was 1 to 10 µM each time. Besides, the IC50 in the assay on HTT CJ mRNA, in the assay on SMN2 CJ mRNA and in the assay with Target C CJ mRNA was 1 to 10 µM each time.

Take `Cc1cn2cc(NC(=O)c3ccc(N4CCNC(C)C4)c4nccnc34)cc(F)c2n1` (stereo not shown) [Compound 157, N-[8-fluoro-2-methylimidazo[1,2-a]pyridin-6-yl]-8-(3-methylpiperazin-1-yl)quinoxaline-5-carboxamide]: the half-maximal activity concentration (AC50) in assay [1] and in assay [2] was 0.1 to 1 µM each time. For the same molecule, the half-maximal inhibitory concentration (IC50) in the assay on HTT CJ mRNA was 0.1 to 1 µM; in the assay with SMN2 CJ mRNA it was < 0.1 µM; in the assay on Target C CJ mRNA, 1 to 10 µM.

As for `O=C(Nc1cn[nH]c1)c1ccc(N2CCNCC2)c2ccnnc12` [Compound 126, 5-(piperazin-1-yl)-N-(1H-pyrazol-4-yl)cinnoline-8-carboxamide], the AC50 in assay [1] and in assay [2] was > 10 µM throughout. Moreover, the concentration for half-maximal inhibition (IC50) in the assay with HTT CJ mRNA, with SMN2 CJ mRNA and with Target C CJ mRNA was > 10 µM throughout.

Regarding `CCN1CCC(c2ccc(C(=O)Nc3cc(F)c4nc(C)cn4c3)c3nnccc23)CC1` [Compound 141, 5-(1-ethylpiperidin-4-yl)-N-[8-fluoro-2-methylimidazo[1,2-a]pyridin-6-yl] cinnoline-8-carboxamide], the AC50 in assay [1] and in assay [2] was 1 to 10 µM throughout. The results for the concentration for half-maximal inhibition (IC50) with HTT CJ mRNA, in the assay with SMN2 CJ mRNA and in the assay with Target C CJ mRNA were 1 to 10 µM, < 0.1 µM and 1 to 10 µM, respectively.

Take `Cc1cn2cc(NC(=O)c3ccc(N4CCN(C)C(C)C4)c4ccnnc34)cc(F)c2n1` (stereo in doubt) [Compound 150, 5-[(3R)-3,4-dimethylpiperazin-1-yl]-N-[8-fluoro-2-methylimidazo[1,2-a]pyridin-6-yl]cinnoline-8-carboxamide]: the AC50 in assay [1] and in assay [2] was 1 to 10 µM each time. Moreover, the IC50 with HTT CJ mRNA was 1 to 10 µM; in the assay on SMN2 CJ mRNA it was < 0.1 µM; in the assay with Target C CJ mRNA, 1 to 10 µM.

As for `Cc1cn2nc(NC(=O)c3ccc(N4CCNCC4)c4ccnnc34)cc2c(C)n1` [Compound 123, N-[4,6-dimethylpyrazolo[1,5-a]pyrazin-2-yl]-5-(piperazin-1-yl)cinnoline-8-carboxamide], the AC50 in assay [1] and in assay [2] was 1 to 10 µM in each case. Also, the IC50 in the assay on HTT CJ mRNA, with SMN2 CJ mRNA and in the assay with Target C CJ mRNA was 1 to 10 µM in each case.

Consider `Cc1cn2cc(NC(=O)c3ccc(N4CCN(C)CC4)c4ccnnc34)cc(F)c2n1` [Compound 127, N-[8-fluoro-2-methylimidazo[1,2-a]pyridin-6-yl]-5-(4-methylpiperazin-1-yl) cinnoline-8-carboxamide], for which the AC50 in assay [1] and in assay [2] was 1 to 10 µM each time. Also, the 50% inhibitory concentration (IC50) in the assay on HTT CJ mRNA was 1 to 10 µM; in the assay with SMN2 CJ mRNA, < 0.1 µM; in the assay with Target C CJ mRNA, 1 to 10 µM.

Take `Cc1cn2cc(NC(=O)c3ccc(N4CCNC(C)C4)c4ccnnc34)cc(F)c2n1` (stereo in doubt) [Compound 146, N-[8-fluoro-2-methylimidazo[1,2-a]pyridin-6-yl]-5-[(3S)-3-methylpiperazin-1-yl]cinnoline-8-carboxamide]: the AC50 in assay [1] and in assay [2] was 0.1 to 1 µM in each case. The values for the IC50 with HTT CJ mRNA, with SMN2 CJ mRNA and with Target C CJ mRNA were 0.1 to 1 µM, < 0.1 µM and > 10 µM, respectively.
